Kd data for 25 compounds are collected here from US10647713B2 (Nimbus Lakshmi, Inc., priority 2016, dated 2020).

Sequence of human TYK2 (JH2domain-pseudokinase) (P29597 556-888): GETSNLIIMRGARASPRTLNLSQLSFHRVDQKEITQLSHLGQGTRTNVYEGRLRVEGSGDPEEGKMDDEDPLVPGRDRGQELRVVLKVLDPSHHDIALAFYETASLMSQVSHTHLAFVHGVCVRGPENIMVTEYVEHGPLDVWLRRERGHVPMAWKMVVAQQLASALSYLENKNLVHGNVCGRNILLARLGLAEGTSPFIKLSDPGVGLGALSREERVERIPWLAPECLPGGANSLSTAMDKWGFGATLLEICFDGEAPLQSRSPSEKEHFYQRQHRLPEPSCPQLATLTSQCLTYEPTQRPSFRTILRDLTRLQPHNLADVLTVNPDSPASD

The target of this test is human TYK2 (JH2domain-pseudokinase) (Homo sapiens (Human), UniProt P29597). Description: TYK2 JH2 Domain Binding Assay (KINOMEscan, DiscoveRx). The settings on record: 11-point dilution, duplicate. The method in brief:
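Kd from duplicate 11-point 3-fold dilutions starting at 30,000 nM, fitted by Hill equation with slope fixed at −1. Compounds (final 0.9% DMSO) displace DNA-tagged HEK293-expressed TYK2 JH2 fusion (<0.1 nM) from ligand-coated beads over 1 h at room temperature; eluted kinase read by qPCR.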
Usually Kd stands for the free concentration of one partner at which half of the binding sites on the other are occupied at equilibrium, for simple one-to-one binding. Read a high Kd as a looser complex. `Cc1nc2c(Nc3ccc(-c4cc(C)n(C)n4)cc3S(C)(=O)=O)cc(Nc3cccc(C(F)(F)F)n3)nc2[nH]1` [I-299, N7-(4-(1,5-dimethyl-1H-pyrazol-3-yl)-2-(methylsulfonyl)phenyl)-2-methyl-N5-(6-(trifluoromethyl)pyridin-2-yl)-3H-imidazo[4,5-b]pyridine-5,7-diamine] yielded a Kd of 0.5 to 1 nM. On to `Cc1ncc(Nc2cc(Nc3ccc(-c4cc(C)n(C)n4)cc3S(C)(=O)=O)c3nc(C(F)F)[nH]c3n2)nc1C` [I-300, 2-(difluoromethyl)-N7-(4-(1,5-dimethyl-1H-pyrazol-3-yl)-2-(methylsulfonyl)phenyl)-N5-(5,6-dimethylpyrazin-2-yl)-3H-imidazo[4,5-b]pyridine-5,7-diamine], for which the Kd was in the range of 0.1 to 0.5 nM.

With `Cn1cnc(-c2ccc(Nc3cc(NC(=O)[C@H]4C[C@H]4F)nc4[nH]c(C(F)F)nc34)c(S(C)(=O)=O)c2)c1` [I-301, (1R,2R)—N-(2-(difluoromethyl)-7-((4-(1-methyl-1H-imidazol-4-yl)-2-(methylsulfonyl)phenyl)amino)-3H-imidazo[4,5-b]pyridin-5-yl)-2-fluorocyclopropane-1-carboxamide], the Kd was 0.1 to 0.5 nM. For the compound `Cc1c(-c2ccc(Nc3cc(Nc4cccc(C#N)n4)nc4[nH]c(C(F)F)nc34)c(S(C)(=O)=O)c2)cnn1C` [I-302, 6-((2-(difluoromethyl)-7-((4-(1,5-dimethyl-1H-pyrazol-4-yl)-2-(methylsulfonyl)phenyl)amino)-3H-imidazo[4,5-b]pyridin-5-yl)amino)picolinonitrile], the Kd was 0.1 to 0.5 nM. Then `Cc1ccc(Nc2cc(Nc3ccc(-c4cc(C)n(C)n4)cc3S(C)(=O)=O)c3nc(C(F)F)[nH]c3n2)nc1C#N` [I-303, 6-((2-(difluoromethyl)-7-((4-(1,5-dimethyl-1H-pyrazol-3-yl)-2-(methylsulfonyl)phenyl)amino)-3H-imidazo[4,5-b]pyridin-5-yl)amino)-3-methylpicolinonitrile], with 0.5 to 1 nM.

Compound `Cc1cnc(-c2ccc(Nc3cc(NC(=O)C4CC4)nc4[nH]c(C(F)F)nc34)c(S(C)(=O)=O)c2)s1` [I-304, N-(2-(difluoromethyl)-7-((2-(methylsulfonyl)-4-(5-methylthiazol-2-yl)phenyl)amino)-3H-imidazo[4,5-b]pyridin-5-yl)cyclopropanecarboxamide] displayed a Kd of 0.5 to 1 nM.

Compound `Cc1nc2c(Nc3ccc(-c4ncc(C)s4)cc3S(C)(=O)=O)cc(NC(=O)C3CC3)nc2[nH]1` [I-305, N-(2-methyl-7-((2-(methylsulfonyl)-4-(5-methylthiazol-2-yl)phenyl)amino)-3H-imidazo[4,5-b]pyridin-5-yl)cyclopropanecarboxamide] returned a Kd of 0.1 to 0.5 nM.

As to `CS(=O)(=O)c1cc([C@H]2CCCO2)ccc1Nc1cc(NC(=O)[C@@H]2CC2(F)F)nc2[nH]c(C(F)F)nc12` [I-306, (S)—N-(2-(difluoromethyl)-7-((2-(methylsulfonyl)-4-((R)-tetrahydrofuran-2-yl)phenyl)amino)-3H-imidazo[4,5-b]pyridin-5-yl)-2,2-difluorocyclopropane-1-carboxamide], the Kd is 0.5 to 1 nM.

As to `CS(=O)(=O)c1cc([C@H]2CCCO2)ccc1Nc1cc(NC(=O)[C@H]2CC2(F)F)nc2[nH]c(C(F)F)nc12` [I-307, (R)—N-(2-(difluoromethyl)-7-((2-(methylsulfonyl)-4-((R)-tetrahydrofuran-2-yl)phenyl)amino)-3H-imidazo[4,5-b]pyridin-5-yl)-2,2-difluorocyclopropane-1-carboxamide], the Kd fell in the range of 1 to 10 nM. Then `Cc1c(-c2ccc(Nc3cc(NC(=O)[C@@H]4CC4(F)F)nc4[nH]c(C(F)F)nc34)c(S(C)(=O)=O)c2)cnn1C` [I-308, (S)—N-(2-(difluoromethyl)-7-((4-(1,5-dimethyl-1H-pyrazol-4-yl)-2-(methylsulfonyl)phenyl)amino)-3H-imidazo[4,5-b]pyridin-5-yl)-2,2-difluorocyclopropane-1-carboxamide], with 0.1 to 0.5 nM; and `Cc1c(-c2ccc(Nc3cc(NC(=O)[C@H]4CC4(F)F)nc4[nH]c(C(F)F)nc34)c(S(C)(=O)=O)c2)cnn1C` [I-309, (R)—N-(2-(difluoromethyl)-7-((4-(1,5-dimethyl-1H-pyrazol-4-yl)-2-(methylsulfonyl)phenyl)amino)-3H-imidazo[4,5-b]pyridin-5-yl)-2,2-difluorocyclopropane-1-carboxamide], with 0.1 to 0.5 nM; and `CS(=O)(=O)c1cc([C@H]2CCCOC2)ccc1Nc1cc(NC(=O)[C@H]2CC2(F)F)nc2[nH]c(C(F)F)nc12` [I-310, (R)—N-(2-(difluoromethyl)-7-((2-(methylsulfonyl)-4-((R)-tetrahydro-2H-pyran-3-yl)phenyl)amino)-3H-imidazo[4,5-b]pyridin-5-yl)-2,2-difluorocyclopropane-1-carboxamide], with 0.5 to 1 nM. The value for `CS(=O)(=O)c1cc([C@H]2CCCOC2)ccc1Nc1cc(NC(=O)[C@@H]2CC2(F)F)nc2[nH]c(C(F)F)nc12` [I-311, (S)—N-(2-(difluoromethyl)-7-((2-(methylsulfonyl)-4-((R)-tetrahydro-2H-pyran-3-yl)phenyl)amino)-3H-imidazo[4,5-b]pyridin-5-yl)-2,2-difluorocyclopropane-1-carboxamide] was 1 to 10 nM. The value for `Cc1nc2c(Nc3ccc(-c4nc(C)c(C)s4)cc3S(C)(=O)=O)cc(NC(=O)C3CC3)nc2[nH]1` [I-312, N-(7-((4-(4,5-dimethylthiazol-2-yl)-2-(methylsulfonyl)phenyl)amino)-2-methyl-3H-imidazo[4,5-b]pyridin-5-yl)cyclopropanecarboxamide] was 0.1 to 0.5 nM; that for `Cc1cc(-c2ccc(Nc3cc(NC(=O)[C@@H]4CC4(F)F)nc4[nH]c(C(F)F)nc34)c(S(C)(=O)=O)c2)nn1C` [I-313, (S)—N-(2-(difluoromethyl)-7-((4-(1,5-dimethyl-1H-pyrazol-3-yl)-2-(methylsulfonyl)phenyl)amino)-3H-imidazo[4,5-b]pyridin-5-yl)-2,2-difluorocyclopropane-1-carboxamide] was 0.5 to 1 nM; that for `Cc1cc(-c2ccc(Nc3cc(NC(=O)[C@H]4CC4(F)F)nc4[nH]c(C(F)F)nc34)c(S(C)(=O)=O)c2)nn1C` [I-314, (R)—N-(2-(difluoromethyl)-7-((4-(1,5-dimethyl-1H-pyrazol-3-yl)-2-(methylsulfonyl)phenyl)amino)-3H-imidazo[4,5-b]pyridin-5-yl)-2,2-difluorocyclopropane-1-carboxamide] was 1 to 10 nM. As to `Cc1cn(C)nc1-c1ccc(Nc2cc(Nc3cnc(C)c(C)n3)nc3[nH]c(C(F)F)nc23)c(S(C)(=O)=O)c1` [I-315, 2-(difluoromethyl)-N7-(4-(1,4-dimethyl-1H-pyrazol-3-yl)-2-(methylsulfonyl)phenyl)-N5-(5,6-dimethylpyrazin-2-yl)-3H-imidazo[4,5-b]pyridine-5,7-diamine], the Kd is 0.1 to 0.5 nM. `CS(=O)(=O)c1cc([C@@H]2CCCO2)ccc1Nc1cc(NC(=O)[C@@H]2CC2(F)F)nc2[nH]c(C(F)F)nc12` [I-316, (S)—N-(2-(difluoromethyl)-7-((2-(methylsulfonyl)-4-((S)-tetrahydrofuran-2-yl)phenyl)amino)-3-imidazo[4,5-b]pyridin-5-yl)-2,2-difluorocyclopropane-1-carboxamide] registered a Kd of 0.5 to 1 nM. Then `CS(=O)(=O)c1cc([C@@H]2CCCO2)ccc1Nc1cc(NC(=O)[C@H]2CC2(F)F)nc2[nH]c(C(F)F)nc12` [I-317, (R)—N-(2-(difluoromethyl)-7-((2-(methylsulfonyl)-4-((S)-tetrahydrofuran-2-yl)phenyl)amino)-3-imidazo[4,5-b]pyridin-5-yl)-2,2-difluorocyclopropane-1-carboxamide], with 0.1 to 0.5 nM; and `CS(=O)(=O)c1cc(C2CCC2)ccc1Nc1cc(NC(=O)[C@@H]2CC2(F)F)nc2[nH]c(C(F)F)nc12` [I-318, (S)—N-(7-((4-cyclobutyl-2-(methylsulfonyl)phenyl)amino)-2-(difluoromethyl)-3H-imidazo[4,5-b]pyridin-5-yl)-2,2-difluorocyclopropane-1-carboxamide], with more than 10 nM; and `CS(=O)(=O)c1cc(C2CCC2)ccc1Nc1cc(NC(=O)[C@H]2CC2(F)F)nc2[nH]c(C(F)F)nc12` [I-319, (R)—N-(7-((4-cyclobutyl-2-(methylsulfonyl)phenyl)amino)-2-(difluoromethyl)-3H-imidazo[4,5-b]pyridin-5-yl)-2,2-difluorocyclopropane-1-carboxamide], with more than 10 nM. The value for `COc1c(Nc2cc(NC(=O)C3CC3)nc3[nH]c(C(F)F)nc23)cccc1-c1nc(C)cs1` [I-320, N-(2-(difluoromethyl)-7-((2-methoxy-3-(4-methylthiazol-2-yl)phenyl)amino)-3H-imidazo[4,5-b]pyridin-5-yl)cyclopropanecarboxamide] was 1 to 10 nM; that for `COc1c(Nc2cc(NC(=O)C3CC3)nc3[nH]c(C)nc23)cccc1-c1nc(C)cs1` [I-321, N-(7-((2-methoxy-3-(4-methylthiazol-2-yl)phenyl)amino)-2-methyl-3H-imidazo[4,5-b]pyridin-5-yl)cyclopropanecarboxamide] was 1 to 10 nM. The value for `Cn1cnc(-c2ccc(Nc3cc(NC(=O)[C@@H]4C[C@@H]4F)nc4[nH]c(C(F)F)nc34)c(S(C)(=O)=O)c2)c1` [I-322, (1S,2S)—N-(2-(difluoromethyl)-7-((4-(1-methyl-1H-imidazol-4-yl)-2-(methylsulfonyl)phenyl)amino)-3H-imidazo[4,5-b]pyridin-5-yl)-2-fluorocyclopropane-1-carboxamide] was 0.1 to 0.5 nM; that for `Cc1nc2c(Nc3ccc([C@@H]4CCCCO4)cc3S(C)(=O)=O)cc(NC(=O)[C@H]3CC3(F)F)nc2[nH]1` [I-323, 2,2-difluoro-N-(2-methyl-7-((2-(methylsulfonyl)-4-((S)-tetrahydro-2H-pyran-2-yl)phenyl)amino)-3H-imidazo[4,5-b]pyridin-5-yl)cyclopropane-1-carboxamide] was 0.1 to 0.5 nM.
